{"source": "paper PMC10461829", "about": "“NlpC/P60 peptidoglycan hydrolases of Trichomonas vaginalis have complementary activities that empower the protozoan to control host-protective lactobacilli” (PLOS Pathogens, 2023)", "target": "T1, TvNlpC_B3 (Trichomonas vaginalis, UniProt A2FQ38)", "T1 construct": "gene TVAG_042760; N-terminal His6-3C tag cleaved; E. coli BL21(DE3), pET47b; model Asn23-Tyr137; catalytic Cys53/His99/His111; no SH3 domain; E64 adduct 14,046 Da", "assay": "X-ray crystal structure of complex; mass spectrometry of covalent adduct", "type": "binding", "details": "covalent at Cys53 via C2; at least 5:1 molar ratio, 1 h, room temperature; only a 131 Da fragment of E64 modelled, intact adduct seen by mass spectrometry", "data": [{"smiles": "CC(C)C[C@H](NC(=O)[C@H]1O[C@@H]1C(=O)O)C(=O)NCCCCNC(=N)N", "note": "[E64]", "values": [{"measurement": "X-ray crystal structure of complex; mass spectrometry of covalent adduct", "value": "The structure of TvNlpC_B3 bound to the inhibitor E64 was determined by molecular replacement"}]}]}
